Ends that are not written are not given here.
How the values were obtained:
[1] = system: type II diabetic mice (C57BL/Ks-Lepr db/db); assay: In vivo bioactivity in type II diabetic mice; conditions: 5 μg peptide s.c. twice a day, day 2, 4, 7, 10
Experimental: 11-week-old type II diabetic mice (C57BL/Ks-Lepr^db/db, Harlan) were treated with 5 μg peptide by subcutaneous injection twice a day at 9 a.m. and 5 p.m. (n=5 per group). Blood glucose was measured before (day 0) and after treatment with GLP^CM peptides (Day 2, 4, 7, 10) at 10 a.m. after an overnight fastening period. Data were presented in relation to blood glucose levels measured at day 0.
Best results were obtained with recombinant SEQ ID NO:6 (CM1) and synthetic SEQ ID NO:8 (CM3). In FIG. 9 (y-axis) the relative effect of the treatment is shown. Blood glucose at day ═O was set to 1. Untreated animals undergo continuous increase in blood glucose level over time, whereas animals treated with inventive peptides display grosso modo a continuous decrease of the blood glucose level over time.

[2] = system: diabetic C57BL/KsJ@Rj-db (db/db) mice; assay: Dose-efficacy study in diabetic mice; type: in vivo
Experimental: A sixth group was treated with saline only. 7 animals were treated per group. Blood glucose was determined from tail bleeds directly before, 1 hour and 4 hours after injection.
The results are shown in dose-response curves according to FIG. 12 ([…] (GLP-1), FIG. 12B (CM1), FIG. 12C (CM3) and FIG. 12D (CM3-ANA01)). For every test substance a graph was prepared with the percentage difference of the blood glucose in relation to the start value for the different concentrations. […] Both models are sigmoidal fit models suitable for dose response evaluation. For every peptide the plasma glucose ED50 values (single s.c. dose in μg/mouse) have been determined from the percentage decrease of blood glucose.
The fall in plasma glucose and the corresponding significance levels are given for the time period 1 hour (@1 h) and 4 hours (@4 h) after peptide injection. Differences have been observed in the long-term efficacy of the peptides.

[3] = system: C57BL/KsJ@Rj-db (db/db) mice; assay: Long-term treatment of db/db mice; type: in vivo
Experimental: Peptides or vehicle will be given once daily (group A-D) between 2°°-3°° p m. subcutaneously in the skin fold of the back. The regimen was continued for 18 weeks. From week 12 to 18 treatment was done twice a day in 6 of 12 animals per group.
Various parameters of the mice were investigated, i.e. health status (1), body weight (2), food consumption (3), blood glucose (4), glucose tolerance test (5), insulin data (6), glycosylated hemoglobin (7), pathology (8), and restimulation of T cells (9). • Health status (1) was good in all groups, no side effects of the treatment have been seen. • Body weight (2) was lower in all treated groups after 18 weeks of treatment (FIG. 13). […] The mean values of 12 animals per group are plotted. […] The relative body weight increase of 12 animals per group after a treatment of 122 days is plotted. […] Non-fasted blood glucose level (1 hour after peptide injection) is shown in FIG. 15A, i.e. the effect of a treatment with saline (A), CM1 (B), CM3-ANA01 (C) or exendin (D) on the non-fasted blood glucose levels. Blood glucose was measured from a tail bleed 1 hour after s.c. injection of saline (A) or the peptides CM1 (B), CM3-ANA01 (C) or exendin (D) in a concentration of 24 nmol/kg. […] Blood glucose was measured from a tail bleed after a 12-hour overnight fast 18 hours after s.c. injection of the test substances. Fasted blood glucose level 18h after peptide injection is reduced in the CM1 and CM3-ANA01 group. • An i.p. glucose tolerance test (5) (IPGTT) was conducted after 8 weeks of treatment on mice of the groups A-D. The basal blood glucose value (0 min) of 12 hour fasted animals has been determined by tail bleed followed by an s.c. injection of the test substance and an i.p. injection of 20% glucose solution (1g glucose per kg). Blood glucose has been further on determined 15, 30, 45, 60, 90 and 120 minutes after glucose injection. […] The serum was analysed for insulin with the Insulin Mouse Ultrasensitive ELISA (Cat.# EIA-3440, DRG). […]

BALB/c mice [4] = conditions: mouse, in vivo
Experimental: (§1) The trial was done in BALB/c mice receiving 5 repeated injections (70 μg peptide/dose, i.v.) over 22d (n=5).
(§2) Spleens of the treated and control mice were explanted, T-cells isolated and stimulated with increasing amounts of antigene. Proliferative recall response is measured.

BALB/c mice [5] = assay: In vivo immunogenicity study; conditions: 5 repeated injections, 70 μg peptide/dose, i.v., over 22d
Experimental: as §1, §2

GLP-1 receptor = biological target: T1, GLP-1 receptor (Homo sapiens, UniProt P43220); type: cell-based
T1 construct: expressed in transfected cells; host or cells: CHO cell line
T1 sequence (P43220 24-463, species assumed): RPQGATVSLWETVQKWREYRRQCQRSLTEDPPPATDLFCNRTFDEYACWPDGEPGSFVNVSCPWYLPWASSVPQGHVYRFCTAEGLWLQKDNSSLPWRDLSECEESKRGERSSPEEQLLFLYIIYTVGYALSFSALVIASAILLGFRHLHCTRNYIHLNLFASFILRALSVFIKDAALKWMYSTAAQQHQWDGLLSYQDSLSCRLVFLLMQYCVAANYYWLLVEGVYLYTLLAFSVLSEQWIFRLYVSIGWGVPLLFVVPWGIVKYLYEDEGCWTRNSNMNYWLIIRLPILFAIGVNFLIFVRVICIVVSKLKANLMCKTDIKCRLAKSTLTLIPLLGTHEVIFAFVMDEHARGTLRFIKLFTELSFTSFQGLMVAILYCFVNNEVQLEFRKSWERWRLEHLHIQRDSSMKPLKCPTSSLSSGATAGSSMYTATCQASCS
Experimental: GLP-1 Bioassay cAMP Increase
The in vitro bioactivity was tested in a GLP-1 receptor transfected CHO cell line by determining the half maximum effective dose (ED50)

DPPIV [6] = biological target: T2, DPPIV (Homo sapiens, UniProt P27487); assay: In vitro plasma stability (kinetic test method), GLP-1 (active) ELISA; conditions: for remaining at 9 h, 1 μM: human, pH 7.8
Target sequence in this assay (P27487 whole entry): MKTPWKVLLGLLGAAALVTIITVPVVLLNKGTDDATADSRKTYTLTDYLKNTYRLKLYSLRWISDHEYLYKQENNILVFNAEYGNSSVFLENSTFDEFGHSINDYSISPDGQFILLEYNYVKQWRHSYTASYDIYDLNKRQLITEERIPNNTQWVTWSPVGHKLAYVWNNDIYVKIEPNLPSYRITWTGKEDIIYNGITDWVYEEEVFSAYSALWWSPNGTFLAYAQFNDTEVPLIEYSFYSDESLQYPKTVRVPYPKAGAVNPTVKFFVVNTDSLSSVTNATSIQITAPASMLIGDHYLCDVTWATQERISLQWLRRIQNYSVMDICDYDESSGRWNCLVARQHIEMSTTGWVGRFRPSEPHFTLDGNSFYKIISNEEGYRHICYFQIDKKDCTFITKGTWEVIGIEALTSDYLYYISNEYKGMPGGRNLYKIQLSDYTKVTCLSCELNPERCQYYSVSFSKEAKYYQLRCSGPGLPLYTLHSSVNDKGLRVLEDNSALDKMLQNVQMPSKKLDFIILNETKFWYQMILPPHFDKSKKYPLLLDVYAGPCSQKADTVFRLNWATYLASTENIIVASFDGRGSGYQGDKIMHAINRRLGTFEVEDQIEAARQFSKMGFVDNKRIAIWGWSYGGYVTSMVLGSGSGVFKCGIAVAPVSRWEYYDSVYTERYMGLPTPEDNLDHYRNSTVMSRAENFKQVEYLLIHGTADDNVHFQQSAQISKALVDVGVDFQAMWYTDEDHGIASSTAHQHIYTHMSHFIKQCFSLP
From the text: Results are from triplicates in at least two independent experiments.

diabetic db/db mice = assay: In vivo bioactivity of PEGylated peptide in diabetic db/db mice
DPPIV [7] = biological target: T2, DPPIV; assay: In vitro human plasma stability of GLP-1 CM peptides; conditions: 20 ng/ml, 37° C., 3 hours
Target sequence in this assay (P27487 39-766 limits assumed): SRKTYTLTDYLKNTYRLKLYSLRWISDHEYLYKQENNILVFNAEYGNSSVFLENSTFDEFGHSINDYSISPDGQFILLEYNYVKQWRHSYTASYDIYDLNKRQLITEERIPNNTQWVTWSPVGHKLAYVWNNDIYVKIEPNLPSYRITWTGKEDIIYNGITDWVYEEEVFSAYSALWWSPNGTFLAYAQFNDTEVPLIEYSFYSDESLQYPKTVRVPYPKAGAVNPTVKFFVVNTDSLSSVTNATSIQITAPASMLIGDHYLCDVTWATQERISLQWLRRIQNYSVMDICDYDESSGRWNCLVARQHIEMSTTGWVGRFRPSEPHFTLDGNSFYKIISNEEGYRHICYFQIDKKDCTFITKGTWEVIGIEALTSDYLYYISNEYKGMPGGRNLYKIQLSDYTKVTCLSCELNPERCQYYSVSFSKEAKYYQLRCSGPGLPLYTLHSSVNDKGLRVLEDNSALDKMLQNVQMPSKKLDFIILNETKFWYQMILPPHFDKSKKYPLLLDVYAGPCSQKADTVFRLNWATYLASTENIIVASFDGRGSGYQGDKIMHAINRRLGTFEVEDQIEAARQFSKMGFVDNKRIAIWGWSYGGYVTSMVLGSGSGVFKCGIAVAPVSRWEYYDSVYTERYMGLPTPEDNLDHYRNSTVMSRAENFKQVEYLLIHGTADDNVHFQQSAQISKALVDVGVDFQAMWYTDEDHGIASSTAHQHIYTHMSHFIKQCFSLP
From the text: Dipeptidylpeptidase activity of the plasma was inhibited by an DPP-IV inhibitor (#DPP4, Biotrend).

In the case of GLP-1(7-37)—IP2-RR-GLP1(7-37) [CM1], the “anti-hyperglycemia effect (blood glucose relative to day 0)” value [1] is reported as “anti-hyperglycemia effect”, the “ED50 (plasma glucose)” value ([2]; single s.c. dose, 1 h measurements, percentage decrease of blood glucose) is reported as 0.61 μg/mouse and the “fall in plasma glucose @1 h” value ([2]; single s.c. injection of 1.1-3.0 nmol peptide, versus control, 1 hour) is reported as 50% ± 14%. The “fall in plasma glucose @4 h” value ([2]; single s.c. injection of 1.1-3.0 nmol peptide, versus control, 4 hours) was 0%, the food consumption ([3]; 24 nmol/kg s.c., 122 day treatment period, compared to the control) was “significantly lower” and the “fasted blood glucose level” value ([3]; 12-hour overnight fast, 18h after peptide injection) was “reduced”. For the same substance, the “non fasted blood glucose level compared to control” value ([3]; 1h after s.c. peptide injection, 24 nmol/kg) was 55%, the clinically relevant immunogenicity (BALB/c mice [4]) was “absence of any clinically relevant immunogenicity” and the toxicity (BALB/c mice [5]) was “no toxicity”.

“HAEGTFTSDVSSYLEGQAAKEFIAWLVKGRGAADFPEEVAIAEELG [CM3-ANA01]” was tested, and the “ED50 (half maximum effective dose), cAMP increase” value (GLP-1 receptor) was 159 µM, the “active GLP-1 as a % of the 0 h value after 9 h” value (DPPIV [6]; 1 μM peptide, 10% human plasma, 37° C., 9 h) was 84% and the “in vitro plasma stability (comparison)” value (DPPIV [6]; 10% human plasma, 37° C.) was “higher plasma stability than CM3”. The remaining at 9 h, 1 μM (DPPIV [6]; 10% human plasma) was 84%.

In the case of “PEG-CM3-ANA08: CM3-ANA08 covalently conjugated to unbranched 40 kDa mPEG maleimido propionamide via thiol of the C-terminal cysteine (HAEGTFTSDVSSYLEGQAAKEFIAWLVKGRGRRDFPEEVAIAEELGC)”, the “ED50 relative to CM3 (lowered in vitro bioactivity)” value (GLP-1 receptor; GLP-1 receptor transfected CHO cell line) is reported as “approximately 5 times”, the signs of toxicity (diabetic db/db mice; mouse, in vivo) is reported as “No signs of toxicity” and the blood glucose decrease (diabetic db/db mice; treated versus non-treated group) is reported as “significant blood glucose decrease”. For the same substance, the “peptide detected in the GLP-1 active ELISA” value (DPPIV [6]; 0 hours) was 19%.

“HAEGTFTSDVSSYLEGQAAKEFIAWLVKGRGRRDFPEEVAIAEELG [CM3]” was tested, and the “ED50 (half maximum effective dose), cAMP increase” value (GLP-1 receptor) was 187 µM, the “stability in human plasma in vitro” value (DPPIV [7]) was “significantly stabilized” and the remaining at 9 h, 1 μM (DPPIV [6]; 10% human plasma) was 63%.

In the case of “HAEGTFTSDVSSYLEGQAAKEFIAWLVKGRGRRDAAAAVAIAEELG [CM3-ANA03]”, the “in vitro plasma stability (comparison)” value (DPPIV [6]; 10% human plasma, 37° C.) is reported as “strongly reduced stability compared to CM3”.

Reference: US20100160556A1, “GLP-1 Fusion Peptides Conjugated to Polymer(s), Their Production and Use” (priority 2007, published 2010)
